Consider 19 compounds from patent US20240408065A1, “CYANO COMPOUND, AND PREPARATION METHOD THEREFOR AND USE THEREOF” (SHANGHAI INSTITUTE OF MATERIA MEDICA, CHINESE ACADEMY OF …, priority 2021, published 2024).

pEC50, pIC50: −log10 of the molar value. Values joined by “and” are separate entries in the source; they are usually repeats but may differ in a detail not shown here. Identical values can stand only once.

For orientation: pIC50 means the IC50 on a negative log10 scale, so that one unit is a factor of ten.

In one series the target is T1, SARS-CoV-2 3CLpro (Severe acute respiratory syndrome coronavirus 2, UniProt P0DTD1).
T1 construct: The SARS-CoV-2 3CL^pro protease and different concentrations of the compounds were added to a 96-well plate
Description: biochemical. The following applies: protease 30 nM, substrate 20 μM.

For series [1] the following is noted: cynomolgus monkey, in vivo.
A short description of another series: in vitro. The following applies: African green monkey.
Series [2] concerns SARS-CoV-2 B.1.351 strain. Description: microbe, parasite or virus in culture. The following applies: Severe acute respiratory syndrome coronavirus 2, Vero C1008, 24 h.
Series [3] deals with 47 safety-related targets. The following applies: read-out: ECo on 47 safety-related targets.
Description: For the 78 tests related to the 47 safe targets, the experimental methods used include: cAMP assay, calcium flux assay, hormone nuclear receptor assay, kinase binding assay, enzyme activity assay, neurotransmitter transporter assay, ion channel assay, and transporter assay.
The test system of series [4] is SARS-CoV-2 Omicron strain (B.1.1.529). Description: microbe, parasite or virus in culture. The following applies: Severe acute respiratory syndrome coronavirus 2, Vero C1008.
A further series has as its system SARS-CoV-2 delta strain. Particulars: mouse, in vivo.

Description for in vitro: In the cytotoxicity test, Vero E6 cells were digested and placed in a culture medium (90% DMEM, 10% fetal bovine serum), inoculated into a 96-well plate at 20000 cells per well, and cultured overnight. The compound to be tested was dissolved in DMSO to prepare a 40 mM stock solution, and further serially diluted with a culture medium or a culture medium containing 0.5 μM Pgp inhibitor to obtain the concentration required for the test.

Turning to `CC(C)(C)[C@H](NC(=O)c1c(F)c(F)c(F)c(F)c1F)C(=O)N1CC2(C[C@H]1C(=O)N[C@H](C#N)C[C@@H]1CCNC1=O)SCCS2` [Compound 20], at SARS-CoV-2 3CLpro, the pIC50 is 6.00 to 7.00.

`N#C[C@H](C[C@@H]1CCNC1=O)NC(=O)[C@@H]1CC2(CN1C(=O)[C@@H](NC(=O)C(F)(F)F)C13CC4CC(CC(C4)C1)C3)SCCS2` [Compound 23]: the pIC50 against SARS-CoV-2 3CLpro was greater than 7.00. On to `CC(C)(C)[C@H](NC(=O)CC(F)(F)F)C(=O)N1CC2(C[C@H]1C(=O)N[C@H](C#N)C[C@@H]1CCNC1=O)SCCS2` [Compound 11], for which, on SARS-CoV-2 3CLpro, the pIC50 is 6.00 to 7.00.

Take `CC(C)(C)[C@H](NC(=O)C(F)(F)C(F)(F)F)C(=O)N1CC2(C[C@H]1C(=O)N[C@H](C#N)C[C@@H]1CCNC1=O)SCCS2` [Compound 13]: the pIC50 at SARS-CoV-2 3CLpro is greater than 7.00.

`N#C[C@H](C[C@@H]1CCNC1=O)NC(=O)[C@@H]1CC2(CN1C(=O)[C@@H](NC(=O)C(F)(F)F)C1CCCC1)SCCS2` [Compound 14] gave a pIC50 at SARS-CoV-2 3CLpro greater than 7.00. Turning to `CC(C)(C)OC(=O)N[C@H](C(=O)N1CC2(C[C@H]1C(=O)N[C@H](C#N)C[C@@H]1CCNC1=O)SCCS2)C(C)(C)C` [Compound 1], the negative logarithm of the IC50 (pIC50) at SARS-CoV-2 3CLpro was greater than 7.00. In turn, `CC(C)(C)[C@H](NC(=O)C1CC1)C(=O)N1CC2(C[C@H]1C(=O)N[C@H](C#N)C[C@@H]1CCNC1=O)SCCS2` [Compound 4] showed a pIC50 on SARS-CoV-2 3CLpro greater than 7.00. Take `CC(C)(C)[C@H](NC(=O)C(F)(F)C(F)(F)F)C(=O)N1CC2(C[C@H]1C(=O)N[C@H](C#N)C[C@@H]1CCCNC1=O)SCCS2` [Compound 22]: the pIC50 on SARS-CoV-2 3CLpro is greater than 7.00. As to `CC(C)(C)[C@H](NC(=O)c1cccnc1)C(=O)N1CC2(C[C@H]1C(=O)N[C@H](C#N)C[C@@H]1CCNC1=O)SCCS2` [Compound 12], the pIC50 at SARS-CoV-2 3CLpro was 5.00 to 6.00. The same measure, in the same setting: for `N#C[C@H](C[C@@H]1CCNC1=O)NC(=O)[C@@H]1CC2(CN1C(=O)[C@@H](NC(=O)C1(F)CC1)C1CCCC1)SCCS2` [Compound 21] the value was greater than 7.00. Regarding `CC(C)(C)[C@H](NC(=O)c1cc(C(F)(F)F)cc(C(F)(F)F)c1)C(=O)N1CC2(C[C@H]1C(=O)N[C@H](C#N)C[C@@H]1CCNC1=O)SCCS2` [Compound 9], the pIC50 against SARS-CoV-2 3CLpro was 5.00 to 6.00. In the case of `CC(C)(C)[C@H](NC(=O)C(F)(F)F)C(=O)N1CC2(C[C@H]1C(=O)N[C@H](C#N)C[C@@H]1CCNC1=O)SCCS2` [Compound 2], in series [1], the arrhythmia entry is “no arrhythmia related to the test product”, the “change in the cardiovascular system” value is recorded as “no change in the cardiovascular system related to the test product” and the “changes in ECG parameters or blood pressure” value is “no changes in ECG parameters or blood pressure related to the test product”. Moreover, the CC50 in the series “in vitro” was greater than 500 µM. The pEC50 in series [2] was 6.14. In addition, the pEC50 in series [3] is less than 4.00. In series [4], this compound gave a pIC50 of 6.92. Moreover, in the series on SARS-CoV-2 delta strain, the “Viral load, brain tissue, Day 2” value is 0.77 ± 0.20 log10 copies/mg and 1.04 ± 0.24 log10 copies/mg; the “Viral load, lung tissue, Day 4” value was 7.88 ± 0.74 log10 copies/g and 7.48 ± 0.63 log10 copies/g; the “body weight of the mice” value is “did not decrease significantly”; the “decrease of virus copy number in the lung compared with the model group” value was 2.4 log 10 copies/g. Moreover, in the series with SARS-CoV-2 delta strain, the “decrease of virus titer in the lung compared with the model group” value is on record as “more than 3 log 10 PFU/g”, the “effect on virus titer in the lung” value is “sustained inhibitory effect”, the “histopathological analysis of the lung” value was “significantly improved lung damage” and the “virus titer in the brain (plaque test)” value was “no virus titer was determined”. Moreover, in the series on SARS-CoV-2 delta strain, the “virus titer in the lung (plaque test)” value is reported as “no titer was detected”.

`COC(=O)N[C@H](C(=O)N1CC2(C[C@H]1C(=O)N[C@H](C#N)C[C@@H]1CCNC1=O)SCCS2)C(C)(C)C` [Compound 6] showed a pIC50 against SARS-CoV-2 3CLpro of 6.00 to 7.00. On the same count and under the same terms, the figure for `CC(C)(C)[C@H](NC(=O)C(F)(F)F)C(=O)N1CC2(C[C@H]1C(=O)N[C@H](C#N)C[C@@H]1CCNC1=O)OCCO2` [Compound 18] is greater than 7.00. For `Cc1cc(C)cc(C(=O)N[C@H](C(=O)N2CC3(C[C@H]2C(=O)N[C@H](C#N)C[C@@H]2CCNC2=O)SCCS3)C(C)(C)C)c1` [Compound 10], on SARS-CoV-2 3CLpro, the pIC50 was 5.00 to 6.00. Still for that read-out and setting: the figure for `CC(C)(C)[C@H](NS(=O)(=O)c1ccccc1)C(=O)N1CC2(C[C@H]1C(=O)N[C@H](C#N)C[C@@H]1CCNC1=O)SCCS2` [Compound 17] is 5.00 to 6.00. Consider `CC(C)(C)[C@H](NC(=O)C(F)(F)F)C(=O)N1C[C@H](Sc2ccccc2)C[C@H]1C(=O)N[C@H](C#N)C[C@@H]1CCNC1=O` [Compound 19], for which, on SARS-CoV-2 3CLpro, the pIC50 was 5.00 to 6.00. Turning to `CC(=O)N[C@H](C(=O)N1CC2(C[C@H]1C(=O)N[C@H](C#N)C[C@@H]1CCNC1=O)SCCS2)C(C)(C)C` [Compound 3], the pIC50 against SARS-CoV-2 3CLpro was greater than 7.00.

In turn, `CC(C)(C)[C@H](NC(=O)c1ccccc1)C(=O)N1CC2(C[C@H]1C(=O)N[C@H](C#N)C[C@@H]1CCNC1=O)SCCS2` [Compound 8] gave a pIC50 on SARS-CoV-2 3CLpro of 5.00 to 6.00.
